{"source": "patent US9980943B2", "about": "“Methods of treating muscular dystrophy” (BOARD OF REGENTS OF THE NEVADA SYSTEM OF HIGHER EDUCATION, …, priority 2013, dated 2018)", "assay_type_in_all_cases": "cell-based, mouse", "key": {"[1]": {"test_system": "β-galactosidase in CMV-LacZ C2C12 myoblasts", "assay": "CMV-LacZ secondary screen in C2C12 myoblasts (β-Gal stabilizing assay)", "settings": "CMV-LacZ C2C12 myoblasts", "method_in_brief": "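First, C2C12 myoblasts were transfected with a linearized CMV-LACZ vector and clonal lines selected by FDG β-gal assay. Then cells were exposed to compounds at 0.5, 1, 5, 10, 20 and 40 μM in 96-well format, two replicates each, and β-gal measured.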"}, "[2]": {"test_system": "β-galactosidase in CMV-LacZ C2C12 myotubes", "assay": "CMV-LacZ secondary screen in C2C12 myotubes (β-Gal stabilizing assay)", "settings": "C2C12 CMV-LacZ myotubes, fold relative to DMSO", "method_in_brief": "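CMV-LacZ C2C12 line (clonal, FDG-screened); myoblasts/myotubes dosed 0.5–40 μM (0.5, 1, 5, 10, 20, 40 μM); n=2 per point; β-gal stabilization read-out.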"}, "[3]": {"test_system": "α7 integrin (LacZ reporter in α7+/LacZ myotubes)", "assay": "Myotube α7 integrin FDG assay (Burkin assay in myotubes, 96-well)", "settings": "myotubes"}, "[4]": {"test_system": "α7 integrin (LacZ reporter in α7βgal+/− myoblasts)", "assay": "Myoblast α7+/LacZ integrin FDG assay (Burkin assay in myoblasts, 96-well)", "settings": "α7+/LacZ myoblasts, 96-well"}}, "note": "Several values for one entry are separate records, joined by “and”; a condition that tells them apart may be missing. Equal values may be shown once."}
{"smiles": "Cc1cccc(Sc2nc(-c3ccccc3)ccc2C#N)c1", "note": "[MLS000325736-01]", "values": [{"measurement": "CMV-LACZ in Myoblasts (β-galactosidase activity relative to DMSO)", "setting": "[1]; 0.5 uM", "value": 0.7862}, {"measurement": "CMV-LACZ in Myoblasts (β-galactosidase activity relative to DMSO)", "setting": "[1]; 1 uM", "value": 0.9135}, {"measurement": "CMV-LACZ in Myoblasts (β-galactosidase activity relative to DMSO)", "setting": "[1]; 5 uM", "value": 0.9758}, {"measurement": "CMV-LACZ in Myoblasts (β-galactosidase activity relative to DMSO)", "setting": "[1]; 10 uM", "value": 1.0696}, {"measurement": "CMV-LACZ in Myoblasts (β-galactosidase activity relative to DMSO)", "setting": "[1]; 20 uM", "value": 1.0111}, {"measurement": "CMV-LACZ in Myoblasts (β-galactosidase activity relative to DMSO)", "setting": "[1]; 40 uM", "value": 1.0537}, {"measurement": "CMV-LACZ in Myotubes, signal relative to DMSO", "setting": "[2]; 0.5 uM", "value": 0.9263}, {"measurement": "CMV-LACZ in Myotubes, signal relative to DMSO", "setting": "[2]; 1 uM", "value": 0.8968}, {"measurement": "CMV-LACZ in Myotubes, signal relative to DMSO", "setting": "[2]; 5 uM", "value": 0.9630}, {"measurement": "CMV-LACZ in Myotubes, signal relative to DMSO", "setting": "[2]; 10 uM", "value": 0.9324}, {"measurement": "CMV-LACZ in Myotubes, signal relative to DMSO", "setting": "[2]; 20 uM", "value": 0.8244}, {"measurement": "CMV-LACZ in Myotubes, signal relative to DMSO", "setting": "[2]; 40 uM", "value": 0.9889}, {"measurement": "Burkin Assay in Myotubes, α7 integrin LacZ reporter signal relative to DMSO", "setting": "[3]; 0.5 uM", "value": 0.9135}, {"measurement": "Burkin Assay in Myotubes, α7 integrin LacZ reporter signal relative to DMSO", "setting": "[3]; 1 uM", "value": 0.8017}, {"measurement": "Burkin Assay in Myotubes, α7 integrin LacZ reporter signal relative to DMSO", "setting": "[3]; 5 uM", "value": 1.027}, {"measurement": "Burkin Assay in Myotubes, α7 integrin LacZ reporter signal relative to DMSO", "setting": "[3]; 10 uM", "value": 1.168}, {"measurement": "Burkin Assay in Myotubes, α7 integrin LacZ reporter signal relative to DMSO", "setting": "[3]; 20 uM", "value": 0.6582}, {"measurement": "Burkin Assay in Myotubes, α7 integrin LacZ reporter signal relative to DMSO", "setting": "[3]; 40 uM", "value": 0.6972}, {"measurement": "Burkin Assay in Myoblasts, signal relative to DMSO", "setting": "[4]; 0.5 uM", "value": 0.7757}, {"measurement": "Burkin Assay in Myoblasts, signal relative to DMSO", "setting": "[4]; 1 uM", "value": 0.7875}, {"measurement": "Burkin Assay in Myoblasts, signal relative to DMSO", "setting": "[4]; 5 uM", "value": 1.423}, {"measurement": "Burkin Assay in Myoblasts, signal relative to DMSO", "setting": "[4]; 10 uM", "value": 1.17}, {"measurement": "Burkin Assay in Myoblasts, signal relative to DMSO", "setting": "[4]; 20 uM", "value": 0.912}, {"measurement": "Burkin Assay in Myoblasts, signal relative to DMSO", "setting": "[4]; 40 uM", "value": 0.8854}]}
{"smiles": "CC1CCCCC1NC(=O)CSc1nnc(COc2ccc(Cl)cc2)o1", "note": "(stereo not drawn) [MLS000948055-01]", "values": [{"measurement": "CMV-LACZ in Myoblasts (β-galactosidase activity relative to DMSO)", "setting": "[1]; 0.5 uM", "value": 0.7540}, {"measurement": "CMV-LACZ in Myoblasts (β-galactosidase activity relative to DMSO)", "setting": "[1]; 1 uM", "value": 0.9674}, {"measurement": "CMV-LACZ in Myoblasts (β-galactosidase activity relative to DMSO)", "setting": "[1]; 5 uM", "value": 1.0787}, {"measurement": "CMV-LACZ in Myoblasts (β-galactosidase activity relative to DMSO)", "setting": "[1]; 10 uM", "value": 1.0993}, {"measurement": "CMV-LACZ in Myoblasts (β-galactosidase activity relative to DMSO)", "setting": "[1]; 20 uM", "value": 0.5407}, {"measurement": "CMV-LACZ in Myoblasts (β-galactosidase activity relative to DMSO)", "setting": "[1]; 40 uM", "value": 0.5522}, {"measurement": "CMV-LACZ in Myotubes, signal relative to DMSO", "setting": "[2]; 0.5 uM", "value": 1.0895}, {"measurement": "CMV-LACZ in Myotubes, signal relative to DMSO", "setting": "[2]; 1 uM", "value": 0.9638}, {"measurement": "CMV-LACZ in Myotubes, signal relative to DMSO", "setting": "[2]; 5 uM", "value": 1.2519}, {"measurement": "CMV-LACZ in Myotubes, signal relative to DMSO", "setting": "[2]; 10 uM", "value": 1.1022}, {"measurement": "CMV-LACZ in Myotubes, signal relative to DMSO", "setting": "[2]; 20 uM", "value": 1.2212}, {"measurement": "CMV-LACZ in Myotubes, signal relative to DMSO", "setting": "[2]; 40 uM", "value": 1.0753}, {"measurement": "Burkin Assay in Myotubes, α7 integrin LacZ reporter signal relative to DMSO", "setting": "[3]; 0.5 uM", "value": 1.067}, {"measurement": "Burkin Assay in Myotubes, α7 integrin LacZ reporter signal relative to DMSO", "setting": "[3]; 1 uM", "value": 1.054}, {"measurement": "Burkin Assay in Myotubes, α7 integrin LacZ reporter signal relative to DMSO", "setting": "[3]; 5 uM", "value": 0.9053}, {"measurement": "Burkin Assay in Myotubes, α7 integrin LacZ reporter signal relative to DMSO", "setting": "[3]; 10 uM", "value": 0.8264}, {"measurement": "Burkin Assay in Myotubes, α7 integrin LacZ reporter signal relative to DMSO", "setting": "[3]; 20 uM", "value": 0.98}, {"measurement": "Burkin Assay in Myotubes, α7 integrin LacZ reporter signal relative to DMSO", "setting": "[3]; 40 uM", "value": 0.7514}, {"measurement": "Burkin Assay in Myoblasts, signal relative to DMSO", "setting": "[4]; 0.5 uM", "value": 1.328}, {"measurement": "Burkin Assay in Myoblasts, signal relative to DMSO", "setting": "[4]; 1 uM", "value": 1.053}, {"measurement": "Burkin Assay in Myoblasts, signal relative to DMSO", "setting": "[4]; 5 uM", "value": 1.136}, {"measurement": "Burkin Assay in Myoblasts, signal relative to DMSO", "setting": "[4]; 10 uM", "value": 0.8986}, {"measurement": "Burkin Assay in Myoblasts, signal relative to DMSO", "setting": "[4]; 20 uM", "value": 0.8213}, {"measurement": "Burkin Assay in Myoblasts, signal relative to DMSO", "setting": "[4]; 40 uM", "value": 0.5867}]}
{"smiles": "CC(C(=O)Nc1ccc(C#N)cc1)N(C)CC(=O)Nc1cccc(F)c1", "note": "(stereo not drawn) [MLS001033255-01]", "values": [{"measurement": "CMV-LACZ in Myoblasts (β-galactosidase activity relative to DMSO)", "setting": "[1]; 0.5 uM", "value": 0.7590}, {"measurement": "CMV-LACZ in Myoblasts (β-galactosidase activity relative to DMSO)", "setting": "[1]; 1 uM", "value": 1.0723}, {"measurement": "CMV-LACZ in Myoblasts (β-galactosidase activity relative to DMSO)", "setting": "[1]; 5 uM", "value": 0.8766}, {"measurement": "CMV-LACZ in Myoblasts (β-galactosidase activity relative to DMSO)", "setting": "[1]; 10 uM", "value": 1.0219}, {"measurement": "CMV-LACZ in Myoblasts (β-galactosidase activity relative to DMSO)", "setting": "[1]; 20 uM", "value": 1.1919}, {"measurement": "CMV-LACZ in Myoblasts (β-galactosidase activity relative to DMSO)", "setting": "[1]; 40 uM", "value": 0.7905}, {"measurement": "CMV-LACZ in Myotubes, signal relative to DMSO", "setting": "[2]; 0.5 uM", "value": 1.1038}, {"measurement": "CMV-LACZ in Myotubes, signal relative to DMSO", "setting": "[2]; 1 uM", "value": 1.1438}, {"measurement": "CMV-LACZ in Myotubes, signal relative to DMSO", "setting": "[2]; 5 uM", "value": "0.9525 and 0.8423"}, {"measurement": "CMV-LACZ in Myotubes, signal relative to DMSO", "setting": "[2]; 10 uM", "value": "1.0297 and 1.045"}, {"measurement": "CMV-LACZ in Myotubes, signal relative to DMSO", "setting": "[2]; 20 uM", "value": "0.9930 and 1.013"}, {"measurement": "CMV-LACZ in Myotubes, signal relative to DMSO", "setting": "[2]; 40 uM", "value": "0.7740 and 1.236"}, {"measurement": "Burkin Assay in Myotubes (signal relative to DMSO)", "setting": "[3]; 0.5 uM", "value": 0.9678}, {"measurement": "Burkin Assay in Myotubes (signal relative to DMSO)", "setting": "[3]; 1 uM", "value": 0.9526}, {"measurement": "Burkin Assay in Myotubes (signal relative to DMSO)", "setting": "[3]; 5 uM", "value": 1.213}, {"measurement": "Burkin Assay in Myotubes (signal relative to DMSO)", "setting": "[3]; 10 uM", "value": 0.997}, {"measurement": "Burkin Assay in Myotubes (signal relative to DMSO)", "setting": "[3]; 20 uM", "value": 0.8683}, {"measurement": "Burkin Assay in Myotubes (signal relative to DMSO)", "setting": "[3]; 40 uM", "value": 1.04}, {"measurement": "Burkin Assay in Myotubes, α7 integrin LacZ reporter signal relative to DMSO", "setting": "[3]; 0.5 uM", "value": 0.91}, {"measurement": "Burkin Assay in Myotubes, α7 integrin LacZ reporter signal relative to DMSO", "setting": "[3]; 1 uM", "value": 0.8188}, {"measurement": "Burkin Assay in Myotubes, α7 integrin LacZ reporter signal relative to DMSO", "setting": "[3]; 5 uM", "value": 1.086}, {"measurement": "Burkin Assay in Myotubes, α7 integrin LacZ reporter signal relative to DMSO", "setting": "[3]; 10 uM", "value": 1.246}, {"measurement": "Burkin Assay in Myotubes, α7 integrin LacZ reporter signal relative to DMSO", "setting": "[3]; 20 uM", "value": 0.8337}, {"measurement": "Burkin Assay in Myotubes, α7 integrin LacZ reporter signal relative to DMSO", "setting": "[3]; 40 uM", "value": 1.232}, {"measurement": "Burkin Assay in Myoblasts, signal relative to DMSO", "setting": "[4]; 0.5 uM", "value": 1.013}, {"measurement": "Burkin Assay in Myoblasts, value relative to DMSO", "setting": "[4]; 0.5 uM", "value": 0.9467}, {"measurement": "Burkin Assay in Myoblasts, signal relative to DMSO", "setting": "[4]; 1 uM", "value": 0.9373}, {"measurement": "Burkin Assay in Myoblasts, value relative to DMSO", "setting": "[4]; 1 uM", "value": 0.9407}, {"measurement": "Burkin Assay in Myoblasts, signal relative to DMSO", "setting": "[4]; 5 uM", "value": 1.017}, {"measurement": "Burkin Assay in Myoblasts, value relative to DMSO", "setting": "[4]; 5 uM", "value": 0.9509}, {"measurement": "Burkin Assay in Myoblasts, signal relative to DMSO", "setting": "[4]; 10 uM", "value": 1.124}, {"measurement": "Burkin Assay in Myoblasts, value relative to DMSO", "setting": "[4]; 10 uM", "value": 0.9542}, {"measurement": "Burkin Assay in Myoblasts, signal relative to DMSO", "setting": "[4]; 20 uM", "value": 0.985}, {"measurement": "Burkin Assay in Myoblasts, value relative to DMSO", "setting": "[4]; 20 uM", "value": 0.7962}, {"measurement": "Burkin Assay in Myoblasts, signal relative to DMSO", "setting": "[4]; 40 uM", "value": 0.8279}, {"measurement": "Burkin Assay in Myoblasts, value relative to DMSO", "setting": "[4]; 40 uM", "value": 0.799}]}
